Experimental data taken from patent publication US12466827B2, “1,3,4-oxadiazole derivative compounds as histone deacetylase 6 inhibitor, and the pharmaceutical composition comprising the same” (CHONG KUN DANG PHARMACEUTICAL CORP., priority 2020, dated 2025).

Columns and labels:
human recombinant HDAC1 = target: T1, human recombinant HDAC1 (Homo sapiens, UniProt Q13547); experiment: In vitro HDAC enzyme activity inhibition assay (HDAC1); type: biochemical; details: Fluor de Lys-SIRT1 substrate 10 μM, 30° C., 60 minutes, fluorescence
T1 construct: purchased Enzo Life Sciences, Inc. BML-SE456
Description: (§1) In order to confirm the selectivity of the compounds represented by Chemical Formula I of the present invention to HDAC6 through HDAC1 and HDAC6 enzyme activity inhibition experiments, a comparison experiment was performed using the material that has already been developed as a control group.
(§2) HDAC enzyme activity was measured using the HDAC Fluorimetric Drug Discovery Kit (Enzo Life Sciences, Inc., BML-AK511, 516). For the HDAC1 enzyme activity test, human recombinant HDAC1 (BML-SE456) was used as an enzyme source and Fluor de Lys-SIRT1 (BNL-KI177) was used as a substrate. After dispensing 5-fold diluted compounds into a 96-well plate, 0.3 μg of enzyme and 10 μM substrate were added to each well of the plate and allowed to react at 30° C. for 60 minutes. Next, Fluor de Lys Developer II (BML-KI176) was added and reacted for 30 minutes to complete the reaction, and then the fluorescence values (Ex 360, Em 460) were measured using a multi-plate reader (Flexstation 3, Molecular Device). The HDAC6 enzymes were tested using human recombinant HDAC6 (382180) from Calbiochem Inc., according to the same protocol as the HDAC1 enzyme activity test method. With respect to the final result values, respective IC50 values were calculated using GraphPad Prism 4.0 program, and results thereof were summarized in Table 4 below.

human recombinant HDAC6 = target: T2, human recombinant HDAC6 (Homo sapiens, UniProt Q9UBN7); experiment: In vitro HDAC enzyme activity inhibition assay (HDAC6); type: biochemical; details: for HDAC6 selectivity (fold): HDAC6 over HDAC1; for IC50: same protocol as the HDAC1 test, human recombinant HDAC6 (Calbiochem)
T2 construct: purchased Calbiochem Inc. 382180
T2 sequence (Q9UBN7 1-1215): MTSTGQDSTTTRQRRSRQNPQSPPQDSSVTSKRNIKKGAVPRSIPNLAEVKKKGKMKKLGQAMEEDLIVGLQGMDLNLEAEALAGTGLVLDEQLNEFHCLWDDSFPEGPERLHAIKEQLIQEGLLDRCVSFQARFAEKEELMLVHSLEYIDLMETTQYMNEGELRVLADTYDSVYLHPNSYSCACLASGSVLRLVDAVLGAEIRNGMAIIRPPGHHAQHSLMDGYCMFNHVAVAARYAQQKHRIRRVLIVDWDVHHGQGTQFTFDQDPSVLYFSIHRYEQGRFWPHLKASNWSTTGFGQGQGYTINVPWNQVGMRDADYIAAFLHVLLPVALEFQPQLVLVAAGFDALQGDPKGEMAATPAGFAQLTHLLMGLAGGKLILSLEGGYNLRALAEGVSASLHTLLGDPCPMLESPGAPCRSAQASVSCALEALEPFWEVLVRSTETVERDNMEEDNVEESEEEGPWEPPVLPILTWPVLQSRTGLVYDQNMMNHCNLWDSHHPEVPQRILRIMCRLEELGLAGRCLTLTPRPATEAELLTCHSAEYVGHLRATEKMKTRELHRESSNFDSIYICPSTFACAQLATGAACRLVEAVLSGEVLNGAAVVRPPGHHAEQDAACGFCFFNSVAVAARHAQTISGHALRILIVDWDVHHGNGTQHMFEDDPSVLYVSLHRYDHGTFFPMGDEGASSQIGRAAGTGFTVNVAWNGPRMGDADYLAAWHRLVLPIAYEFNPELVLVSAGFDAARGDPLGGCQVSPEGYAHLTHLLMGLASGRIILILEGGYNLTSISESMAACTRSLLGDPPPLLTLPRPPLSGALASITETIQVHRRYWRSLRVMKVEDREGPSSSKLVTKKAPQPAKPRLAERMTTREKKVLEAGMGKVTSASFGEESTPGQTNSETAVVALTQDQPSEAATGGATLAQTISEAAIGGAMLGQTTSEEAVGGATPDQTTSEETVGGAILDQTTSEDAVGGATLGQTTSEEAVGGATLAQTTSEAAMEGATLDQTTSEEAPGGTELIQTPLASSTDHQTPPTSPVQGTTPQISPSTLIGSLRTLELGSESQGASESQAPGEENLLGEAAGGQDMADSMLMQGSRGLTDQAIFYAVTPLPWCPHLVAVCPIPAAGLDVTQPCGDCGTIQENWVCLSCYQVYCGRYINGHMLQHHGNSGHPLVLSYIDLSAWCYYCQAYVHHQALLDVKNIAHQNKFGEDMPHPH
Description: as §1, §2

T1 sequence (Q13547 whole entry): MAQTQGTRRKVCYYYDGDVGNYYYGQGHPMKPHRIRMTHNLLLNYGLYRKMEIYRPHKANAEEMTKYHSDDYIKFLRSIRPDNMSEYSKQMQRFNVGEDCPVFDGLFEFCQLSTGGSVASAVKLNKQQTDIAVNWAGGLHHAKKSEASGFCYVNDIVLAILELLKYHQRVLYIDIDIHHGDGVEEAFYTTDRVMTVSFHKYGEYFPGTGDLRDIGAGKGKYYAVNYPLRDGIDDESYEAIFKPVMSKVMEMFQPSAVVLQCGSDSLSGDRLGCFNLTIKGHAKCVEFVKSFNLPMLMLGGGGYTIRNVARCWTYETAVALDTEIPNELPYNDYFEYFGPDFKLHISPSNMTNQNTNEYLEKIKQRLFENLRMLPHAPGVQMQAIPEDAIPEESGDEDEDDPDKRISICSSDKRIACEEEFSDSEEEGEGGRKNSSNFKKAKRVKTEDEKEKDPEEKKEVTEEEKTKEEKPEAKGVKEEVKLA

IC50 (human recombinant HDAC1) [nM]	HDAC6 selectivity (fold) (human recombinant HDAC6)	IC50 (human recombinant HDAC6) [nM]	Compound
> 50000	821	60.9	CCN1CCC(S(=O)(=O)N(Cc2cn3ccc(-c4nnc(C(F)F)o4)cc3n2)c2cccc(F)c2)CC1 [Compound 4237, N-((7-(5-(difluoromethyl)-1,3,4-oxadiazol-2-yl)imidazo[1,2-a]pyridin-2-yl)methyl)-1-ethyl-N-(3-fluorophenyl)-piperidine-4-sulfonamide]
> 50000	503	99.4	CN(C)C(=O)N1CCC(S(=O)(=O)N(Cc2cn3ccc(-c4nnc(C(F)F)o4)cc3n2)c2cccc(F)c2)CC1 [Compound 4253, 4—(N-((7-(5-(difluoromethyl)-1,3,4-oxadiazol-2-yl)imidazo[1,2-a]pyridin-2-yl)methyl)-N-(3-fluorophenyl)sulfamoyl)-N, N-dimethylpiperidine-1-carboxamide]
> 50000	243	205	O=S(=O)(C1CCN(C2CC3(CCC3)C2)CC1)N(Cc1cn2ccc(-c3nnc(C(F)F)o3)cc2n1)c1cccc(F)c1 [Compound 4616, N-((7-(5-(difluoromethyl)-1,3,4-oxadiazol-2-yl)imidazo[1,2-a]pyridin-2-yl)methyl)-N-(3-fluorophenyl)-1-(spiro[3.3]heptan-2-yl)piperidine-4-sulfonamide]
> 50000	684	73.1	O=C(C1COC1)N1CCC(S(=O)(=O)N(Cc2cn3ccc(-c4nnc(C(F)F)o4)cc3n2)c2cccc(F)c2)CC1 [Compound 4249, N-((7-(5-(difluoromethyl)-1,3,4-oxadiazol-2-yl)imidazo[1,2-a]pyridin-2-yl)methyl)-N-(3-fluorophenyl)-1-(oxetan-3-carbonyl)piperidine-4-sulfonamide]
> 50000	229	218	CCC(=O)N1CCC(S(=O)(=O)N(Cc2cn3ccc(-c4nnc(C(F)F)o4)cc3n2)c2ccccc2)CC1 [Compound 4222, N-((7-(5-(difluoromethyl)-1,3,4-oxadiazol-2-yl)imidazo[1,2-a]pyridin-2-yl)methyl)-N-phenyl-1-propionylpiperidine-4-sulfonamide]

Continued, molecule first:

Compound	IC50 (human recombinant HDAC1) [nM]	HDAC6 selectivity (fold) (human recombinant HDAC6)	IC50 (human recombinant HDAC6) [nM]
O=C(C1CCC1)N1CCC(S(=O)(=O)N(Cc2cn3ccc(-c4nnc(C(F)F)o4)cc3n2)c2ccccc2)CC1 [Compound 4223, 1-(cyclobutanecarbonyl)-N-((7-(5-(difluoromethyl)-1,3,4-oxadiazol-2-yl)imidazo[1,2-a]pyridine-2-yl)methyl)-N-phenylpiperidine-4-sulfonamide]	> 50000	392	128
O=C(N1CCN(S(=O)(=O)N(Cc2cn3ccc(-c4nnc(C(F)F)o4)cc3n2)c2cccc(F)c2)CC1)C(F)(F)F [Compound 4311, N-((7-(5-(difluoromethyl)-1,3,4-oxadiazol-2-yl)imidazo[1,2-a]pyridin-2-yl)methyl)-N-(3-fluorophenyl)-4-(2,2,2-trifluoroacetyl)piperazine-1-sulfonamide]	> 50000	510	98
O=S(=O)(N1CCN(C2CC3(CCC3)C2)CC1)N(Cc1cn2ccc(-c3nnc(C(F)F)o3)cc2n1)c1cccc(F)c1 [Compound 4622, N-((7-(5-(difluoromethyl)-1,3,4-oxadiazol-2-yl)imidazo[1,2-a]pyridin-2-yl)methyl)-N-(3-fluorophenyl)-4-(spiro[3.3]heptan-2-yl)piperazine-1-sulfonamide]	> 50000	274	182
CS(=O)(=O)N1CCN(S(=O)(=O)N(Cc2cn3ccc(-c4nnc(C(F)F)o4)cc3n2)c2cccc(F)c2)CC1 [Compound 4312, N-((7-(5-(difluoromethyl)-1,3,4-oxadiazol-2-yl)imidazo[1,2-a]pyridin-2-yl)methyl)-N-(3-fluorophenyl)-4-(methylsulfonyl)piperazine-1-sulfonamide]	> 50000	530	94.3
O=S(=O)(N1CCN(c2ncccn2)CC1)N(Cc1cn2ccc(-c3nnc(C(F)F)o3)cc2n1)c1ccccc1 [Compound 4275, N-((7-(5-(difluoromethyl)-1,3,4-oxadiazol-2-yl)imidazo[1,2-a]pyridin-2-yl)methyl)-N-phenyl-4-(pyrimidin-2-yl)piperazine-1-sulfonamide]	> 50000	351	142
COC(=O)N1CCN(S(=O)(=O)N(Cc2cn3ccc(-c4nnc(C(F)F)o4)cc3n2)c2ccccc2)CC1 [Compound 4272, methyl 4-(N-((7-(5-(difluoromethyl)-1,3,4-oxadiazol-2-yl)imidazo[1,2-a]pyridin-2-yl)methyl)-N-phenylsulfamoyl)piperazine-1-carboxylate]	> 50000	298	168
O=S(=O)(N1CCN(C2CCC(F)(F)CC2)CC1)N(Cc1cn2ccc(-c3nnc(C(F)F)o3)cc2n1)c1cccc(F)c1 [Compound 4305, 4-(4,4-difluorocyclohexyl)-N-((7-(5-(difluoromethyl)-1,3,4-oxadiazol-2-yl)imidazo[1,2-a]pyridin-2-yl)methyl)-N-(3-fluorophenyl)piperazine-1-sulfonamide]	> 50000	437	114
CC(CO)N1CCC(S(=O)(=O)N(Cc2cn3ccc(-c4nnc(C(F)F)o4)cc3n2)c2ccccc2)CC1 (stereo not drawn) [Compound 4216, N-((7-(5-(difluoromethyl)-1,3,4-oxadiazol-2-yl)imidazo[1,2-a]pyridin-2-yl)methyl)-1-(1-hydroxypropan-2-yl)-N-phenylpiperidine-4-sulfonamide]	> 50000	420	119
O=S(=O)(N1CCN(C2COC2)CC1)N(Cc1cn2ccc(-c3nnc(C(F)F)o3)cc2n1)c1ccccc1 [Compound 4261, N-((7-(5-(difluoromethyl)-1,3,4-oxadiazol-2-yl)imidazo[1,2-a]pyridin-2-yl)methyl)-4-(oxetan-3-yl)-N-phenylpiperazine-1-sulfonamide]	> 50000	588	85
CC(=O)N1CCN(S(=O)(=O)N(Cc2cn3ccc(-c4nnc(C(F)F)o4)cc3n2)c2cccc(F)c2)CC1 [Compound 4306, 4-acetyl-N-((7-(5-(difluoromethyl)-1,3,4-oxadiazol-2-yl)imidazo[1,2-a]pyridin-2-yl)methyl)-N-(3-fluorophenyl)piperazine-1-sulfonamide]	> 50000	617	81
CC(CO)N1CCN(S(=O)(=O)N(Cc2cn3ccc(-c4nnc(C(F)F)o4)cc3n2)c2ccccc2)CC1 (stereo not drawn) [Compound 4259, N-((7-(5-(difluoromethyl)-1,3,4-oxadiazol-2-yl)imidazo[1,2-a]pyridin-2-yl)methyl)-4-(1-hydroxypropan-2-yl)-N-phenylpiperazine-1-sulfonamide]	> 50000	605	82.6
